Key:
[1] = tested on: woolly cupgrass; experiment: Test C pre-/postemergence test; format: in vivo, Eriochloa villosa
Procedure, shortened: (§1)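 Seeds were planted and treated preemergence with test chemical in a non-phytotoxic solvent mixture containing surfactant. Postemergence applications of the same formulation went onto plants 2 to 18 cm tall (1- to 4-leaf stage). A dash marks no test result.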

[2] = tested on: crabgrass; experiment: Test C pre-/postemergence test; format: in vivo, Digitaria sanguinalis
Procedure, shortened: as §1

[3] = tested on: soybean; experiment: Test C pre-/postemergence test; format: in vivo, Glycine max
Procedure, shortened: as §1

[4] = tested on: common (oilseed) sunflower; experiment: Test C pre-/postemergence test; format: in vivo, Helianthus annuus; settings: for Sunflower plant response rating: preemergence, scale 0 (no effect) to 100 (complete control)
Procedure, shortened: as §1

[5] = tested on: barnyardgrass; experiment: Test A pre-/postemergence greenhouse test; format: in vivo, Echinochloa crus-galli; settings: for Barnyardgrass plant response rating: 0 to 100 scale
Procedure, shortened: (§2)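 Herbicidal effect is a visual injury score given about ten days post-treatment by comparison with untreated controls. Preemergence plots received a directed spray onto sown loam–sand soil; postemergence plants, at the one- to two-leaf stage and 2–10 cm tall, were sprayed at the same time.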

[6] = tested on: Italian ryegrass; experiment: Test C pre-/postemergence test; format: in vivo, Lolium multiflorum
Procedure, shortened: as §1

[7] = tested on: corn; experiment: Test C pre-/postemergence test; format: in vivo, Zea mays
Procedure, shortened: as §1

[8] = tested on: yellow nutsedge; experiment: Test C pre-/postemergence test; format: in vivo, Cyperus esculentus
Procedure, shortened: as §1

[9] = tested on: green foxtail; experiment: Test C pre-/postemergence test; format: in vivo, Setaria viridis
Procedure, shortened: as §1

[10] = tested on: cocklebur; experiment: Test C pre-/postemergence test; format: in vivo, Xanthium strumarium
Procedure, shortened: as §1

[11] = tested on: blackgrass; experiment: Test C pre-/postemergence test; format: in vivo, Alopecurus myosuroides
Procedure, shortened: as §1

[12] = tested on: pigweed; experiment: Test C pre-/postemergence test; format: in vivo, Amaranthus retroflexus
Procedure, shortened: as §1

[13] = tested on: morningglory; experiment: Test A pre-/postemergence greenhouse test; format: in vivo, Ipomoea spp.; settings: for Morningglory plant response rating: 0 to 100 scale
Procedure, shortened: as §2

[14] = tested on: morningglory; experiment: Test C pre-/postemergence test; format: in vivo, Ipomoea coccinea
Procedure, shortened: as §1

[15] = tested on: umbrella sedge; experiment: Test C flooded paddy test; format: in vivo, Cyperus difformis; settings: Flood
Procedure, shortened: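 In-water treatment: compound dosed into 3 cm flood over soil, water level unchanged throughout. Controls run alongside; visual assessment at day 13–15.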

[16] = tested on: wheat; experiment: Test C pre-/postemergence test; format: in vivo, Triticum aestivum; settings: for Wheat plant response rating: preemergence, scale 0 (no effect) to 100 (complete control)
Procedure, shortened: as §1

[17] = tested on: kochia; experiment: Test C pre-/postemergence test; format: in vivo, Kochia scoparia
Procedure, shortened: as §1

[18] = 31 g ai/ha, Preemergence, scale 0 to 100
[19] = 62 g ai/ha, preemergence, scale 0 (no effect) to 100 (complete control)
[20] = preemergence, 125 g ai/ha, scale 0 (no effect) to 100 (complete control)
[21] = Postemergence, 125 g ai/ha, 0 is no effect, 100 is complete control
[22] = Postemergence, 500 g ai/ha, 0 is no effect, 100 is complete control
[23] = Preemergence, 125 g ai/ha, 0 no effect, 100 complete control
[24] = Preemergence, 500 g ai/ha, 0 to 100 scale where 0 is no effect and 100 is complete control

Cn1nc(C(F)(F)F)c(C[S+]([O-])c2cccc[n+]2[O-])c1Cl (stereo not drawn) [Compound 8]
Cupgrass, Woolly plant response rating [1, 18]: 70 | Cupgrass, Woolly plant response rating [1, 19]: 98 | Plant response rating (0 to 100), Cupgrass, Woolly ([1]; Preemergence, 250 g ai/ha): 100 | Cupgrass, Woolly plant response rating [1, 20]: 100 | Crabgrass, Large plant response rating [2, 18]: 90 | Crabgrass, Large plant response rating [2, 19]: 100 | Plant response rating (0 to 100), Crabgrass, Large ([2]; Preemergence, 250 g ai/ha): 100 | Crabgrass, Large plant response rating [2, 20]: 100 | Soybean plant response rating [3, 18]: 0 | Soybean plant response rating [3, 19]: 0 | Plant response rating (0 to 100), Soybean ([3]; Preemergence, 250 g ai/ha): 90 | Soybean plant response rating [3, 20]: 80 | Sunflower plant response rating ([4]; 62 g ai/ha): 30 | Plant response rating (0 to 100), Sunflower ([4]; Preemergence, 250 g ai/ha): 100 | Sunflower plant response rating ([4]; 125 g ai/ha): 60 | Barnyardgrass plant response rating [5, 21]: 80 | Barnyardgrass plant response rating [5, 22]: 80 | Barnyardgrass plant response rating [5, 23]: 90 | Plant response rating, Barnyardgrass [5, 24]: 100 | Ryegrass, Italian plant response rating [6, 18]: 0 | Ryegrass, Italian plant response rating [6, 19]: 50 | Plant response rating (0 to 100), Ryegrass, Italian ([6]; Preemergence, 250 g ai/ha): 95 | Ryegrass, Italian plant response rating [6, 20]: 70 | Corn plant response rating [7, 18]: 60 | Corn plant response rating [7, 19]: 80 | Plant response rating (0 to 100), Corn ([7]; Preemergence, 250 g ai/ha): 98 | Corn plant response rating [7, 20]: 95 | Nutsedge, Yellow plant response rating [8, 18]: 60 | Nutsedge, Yellow plant response rating [8, 19]: 80 | Plant response rating (0 to 100), Nutsedge, Yellow ([8]; Preemergence, 250 g ai/ha): 100 | Nutsedge, Yellow plant response rating [8, 20]: 100 | Foxtail, Green plant response rating [9, 18]: 100 | Foxtail, Green plant response rating [9, 19]: 100 | Plant response rating (0 to 100), Foxtail, Green ([9]; Preemergence, 250 g ai/ha): 100 | Foxtail, Green plant response rating [9, 20]: 100 | Cocklebur plant response rating [10, 18]: 0 | Cocklebur plant response rating [10, 19]: 0 | Plant response rating (0 to 100), Cocklebur ([10]; Preemergence, 250 g ai/ha): 5 | Cocklebur plant response rating [10, 20]: 0 | Blackgrass plant response rating [11, 18]: 0 | Blackgrass plant response rating [11, 19]: 0 | Plant response rating (0 to 100), Blackgrass ([11]; Preemergence, 250 g ai/ha): 100 | Blackgrass plant response rating [11, 20]: 100 | Pigweed plant response rating [12, 18]: 85 | Pigweed plant response rating [12, 19]: 100 | Plant response rating (0 to 100), Pigweed ([12]; Preemergence, 250 g ai/ha): 100 | Pigweed plant response rating [12, 20]: 100 | Morningglory plant response rating [13, 21]: 60 | Morningglory plant response rating [13, 22]: 70 | Morningglory plant response rating [13, 23]: 90 | Plant response rating, Morningglory [13, 24]: 90 | Morningglory plant response rating [14, 18]: 5 | Morningglory plant response rating [14, 19]: 90 | Plant response rating (0 to 100), Morningglory ([14]; Preemergence, 250 g ai/ha): 100 | Morningglory plant response rating [14, 20]: 100 | Plant response rating, Sedge, Umbrella ([15]; 31 g ai/ha, scale 0 to 100 (0 no effect, 100 complete control)): 0 | Plant response rating, Sedge, Umbrella ([15]; 62 g ai/ha, scale 0 to 100, 0 no effect, 100 complete control, 13 to 15 days): 0 | Plant response rating, Sedge, Umbrella ([15]; 125 g ai/ha, scale 0 to 100, 0 no effect, 100 complete control, 13 to 15 days): 85 | Plant response rating, Sedge, Umbrella ([15]; 250 g ai/ha, scale 0 to 100 (0 no effect, 100 complete control)): 100 | Wheat plant response rating ([16]; 62 g ai/ha): 30 | Plant response rating (0 to 100), Wheat ([16]; Preemergence, 250 g ai/ha): 80 | Wheat plant response rating ([16]; 125 g ai/ha): 50 | Kochia plant response rating [17, 18]: 40 | Kochia plant response rating [17, 19]: 45 | Plant response rating (0 to 100), Kochia ([17]; Preemergence, 250 g ai/ha): 100 | Kochia plant response rating [17, 20]: 100
